pIC50: −log10 of the molar value. Bounds are passed on as bounds.

The target of this assay is T1, human acetyl-CoA carboxylase 2 (ACC2) (Homo sapiens, UniProt O00763).
T1 construct: The cDNA encoding amino acids 144 to 2458 of human acetyl-CoA carboxylase 2; made in house; host or cells: Sf9 insect cells (baculovirus, pFastBac1)
T1 sequence (O00763 144-2458): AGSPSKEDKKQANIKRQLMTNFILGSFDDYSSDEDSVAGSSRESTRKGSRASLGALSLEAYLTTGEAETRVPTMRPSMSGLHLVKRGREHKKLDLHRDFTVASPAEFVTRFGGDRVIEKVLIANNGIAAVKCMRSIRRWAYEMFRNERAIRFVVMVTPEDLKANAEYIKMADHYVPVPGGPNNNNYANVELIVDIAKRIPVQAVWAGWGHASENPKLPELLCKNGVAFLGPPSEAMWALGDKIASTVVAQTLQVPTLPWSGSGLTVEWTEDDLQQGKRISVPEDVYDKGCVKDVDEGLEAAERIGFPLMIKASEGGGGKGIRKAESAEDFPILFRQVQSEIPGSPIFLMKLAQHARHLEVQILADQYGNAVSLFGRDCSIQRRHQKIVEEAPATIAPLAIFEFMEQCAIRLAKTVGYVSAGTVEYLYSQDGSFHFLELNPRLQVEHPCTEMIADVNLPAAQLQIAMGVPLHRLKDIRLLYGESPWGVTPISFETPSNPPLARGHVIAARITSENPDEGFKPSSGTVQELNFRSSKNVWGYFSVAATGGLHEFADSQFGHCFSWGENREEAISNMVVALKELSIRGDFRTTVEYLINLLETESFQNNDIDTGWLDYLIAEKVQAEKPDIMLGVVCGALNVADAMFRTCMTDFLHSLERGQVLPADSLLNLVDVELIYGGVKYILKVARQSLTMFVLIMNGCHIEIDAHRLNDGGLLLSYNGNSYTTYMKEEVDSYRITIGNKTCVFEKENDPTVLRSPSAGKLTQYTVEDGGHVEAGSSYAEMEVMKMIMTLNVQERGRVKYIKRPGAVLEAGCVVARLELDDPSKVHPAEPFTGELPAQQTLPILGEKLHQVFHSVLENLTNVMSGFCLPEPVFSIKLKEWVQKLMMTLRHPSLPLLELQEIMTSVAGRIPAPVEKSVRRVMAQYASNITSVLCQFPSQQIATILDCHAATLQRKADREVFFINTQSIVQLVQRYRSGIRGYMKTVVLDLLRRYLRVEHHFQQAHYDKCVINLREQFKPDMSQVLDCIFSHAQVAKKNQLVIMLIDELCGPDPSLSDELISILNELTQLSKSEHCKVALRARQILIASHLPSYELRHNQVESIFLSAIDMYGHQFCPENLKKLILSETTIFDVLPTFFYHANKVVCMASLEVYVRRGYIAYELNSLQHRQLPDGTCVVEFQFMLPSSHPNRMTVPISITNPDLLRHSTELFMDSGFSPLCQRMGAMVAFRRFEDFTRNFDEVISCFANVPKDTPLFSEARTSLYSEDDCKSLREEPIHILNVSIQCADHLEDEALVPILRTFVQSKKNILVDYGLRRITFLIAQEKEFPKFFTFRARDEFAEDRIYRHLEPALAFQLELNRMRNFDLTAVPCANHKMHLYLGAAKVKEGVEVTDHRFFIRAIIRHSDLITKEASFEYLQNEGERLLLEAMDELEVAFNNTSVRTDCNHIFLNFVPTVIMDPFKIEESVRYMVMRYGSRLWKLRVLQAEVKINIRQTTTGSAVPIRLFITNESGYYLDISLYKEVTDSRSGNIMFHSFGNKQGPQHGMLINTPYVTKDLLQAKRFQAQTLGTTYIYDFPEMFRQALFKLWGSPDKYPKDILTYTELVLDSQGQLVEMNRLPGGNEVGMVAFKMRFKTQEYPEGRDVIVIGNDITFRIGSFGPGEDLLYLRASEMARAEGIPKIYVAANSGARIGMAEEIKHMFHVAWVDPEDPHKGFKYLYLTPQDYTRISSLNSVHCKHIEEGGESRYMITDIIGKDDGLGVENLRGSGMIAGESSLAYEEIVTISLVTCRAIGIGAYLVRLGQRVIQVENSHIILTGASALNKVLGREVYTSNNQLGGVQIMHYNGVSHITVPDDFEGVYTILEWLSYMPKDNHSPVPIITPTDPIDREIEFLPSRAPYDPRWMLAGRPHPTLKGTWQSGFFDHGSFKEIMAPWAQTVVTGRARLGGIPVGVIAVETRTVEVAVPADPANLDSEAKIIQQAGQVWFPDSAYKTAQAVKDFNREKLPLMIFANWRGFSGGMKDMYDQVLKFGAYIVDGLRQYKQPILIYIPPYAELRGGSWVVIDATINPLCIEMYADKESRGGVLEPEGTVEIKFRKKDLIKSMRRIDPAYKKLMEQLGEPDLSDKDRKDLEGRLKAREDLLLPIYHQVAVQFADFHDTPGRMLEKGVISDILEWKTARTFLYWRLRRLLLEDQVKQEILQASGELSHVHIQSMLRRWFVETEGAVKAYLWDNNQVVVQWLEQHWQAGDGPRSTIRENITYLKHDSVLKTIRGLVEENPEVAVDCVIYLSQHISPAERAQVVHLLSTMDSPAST
Kind of assay: Acetyl-CoA carboxylase enzyme assay (malonyl-CoA formation by LC/MS/MS). Format: biochemical. The conditions noted are these: recombinant human ACC2 (aa 144-2458); read-out: IC50 ACC2. The essentials: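 Malonyl-CoA formation was read by LC/MS/MS MRM against a [13C3]-malonyl-CoA internal standard, after acetic acid quench. The enzyme was baculovirus/Sf9-expressed human ACC2 residues 144–2458, given 15 minutes room-temperature compound preincubation in HEPES pH 7.5 buffer with MgCl2, citrate and DTT. Substrate solution held 50 μM acetyl-CoA, 120 μM ATP and 2 mM KHCO3.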
In the case of `C[C@@H](NC(=O)[C@H]1CC[C@H](NS(=O)(=O)c2ccc3c(c2)N(C)[C@H](C(=O)O)CC3)CC1)c1ccc(F)cc1` [Example 250, (S)-7-(N-((1R,4S)-4-((R)-1-(4-fluorophenyl)ethylcarbamoyl)cyclohexyl)sulfamoyl)-1-methyl-1,2,3,4-tetrahydroquinoline-2-carboxylic acid], the pIC50 (usually −log10 of the IC50, conventionally taken in molar units) was 6.23. For the compound `C[C@@H](NC(=O)[C@H]1CC[C@H](NS(=O)(=O)c2ccc3c(c2)N(C)[C@@H](C(=O)O)CC3)CC1)c1ccc(F)cc1` [Example 251, (R)-7-(N-((1R,4R)-4-((R)-1-(4-fluorophenyl)ethylcarbamoyl)cyclohexyl)sulfamoyl)-1-methyl-1,2,3,4-tetrahydroquinoline-2-carboxylic acid], the negative-log IC50 (pIC50) is 7.46. For `COC(=O)[C@H]1CC[C@H](NS(=O)(=O)c2ccc3nc(-c4cc(C)nc(C)c4)ccc3c2)CC1` [Example 252, (1r,4r)-methyl 4-(2-(2,6-dimethylpyridin-4-yl)quinoline-6-sulfonamido)cyclohexanecarboxylate], the negative logarithm of the IC50 (pIC50) is below 4.46. Regarding `Cc1cc(-c2ccc3cc(S(=O)(=O)N[C@H]4CC[C@H](C(=O)NC(c5ccccc5)C(C)(C)O)CC4)ccc3n2)cc(C)n1` (stereo partly shown) [Example 253, (1r,4r)-4-(2-(2,6-dimethylpyridin-4-yl)quinoline-6-sulfonamido)-N-(2-hydroxy-2-methyl-1-phenylpropyl)cyclohexanecarboxamide], the pIC50 was 7.70. The result for `Cc1cc(-c2ccc3cc(S(=O)(=O)N[C@H]4CC[C@H](C(=O)N5CCNCC5c5ccccc5)CC4)ccc3n2)cc(C)n1` (stereo partly shown) [Example 254, 2-(2,6-dimethylpyridin-4-yl)-N-((1r,4r)-4-(2-phenylpiperazine-1-carbonyl)cyclohexyl)quinoline-6-sulfonamide] reads 7.70; that for `CC(C)(C)OC(=O)N1CCN(C(=O)[C@H]2CC[C@H](NS(=O)(=O)c3ccc4oc5ccccc5c4c3)CC2)[C@@H](c2ccccc2)C1` [Example 255, (S)-tert-butyl 4-((1r,4S)-4-(dibenzo[b,d]furan-2-sulfonamido)cyclohexanecarbonyl)-3-phenylpiperazine-1-carboxylate], 7.82; that for `O=C([C@H]1CC[C@H](NS(=O)(=O)c2ccc3oc4ccccc4c3c2)CC1)N1CCNC[C@@H]1c1ccccc1` [Example 256, N-((1S,4r)-4-((S)-2-phenylpiperazine-1-carbonyl)cyclohexyl)dibenzo[b,d]furan-2-sulfonamide], 7.70. For `Cc1cc(-c2ccc3cc(S(=O)(=O)N[C@H]4CC[C@H](C(=O)N5CCNC[C@H]5c5ccccc5)CC4)ccc3n2)cc(C)n1` [Example 257, 2-(2,6-dimethylpyridin-4-yl)-N-((1R,4r)-4-((R)-2-phenylpiperazine-1-carbonyl)cyclohexyl)quinoline-6-sulfonamide], the negative-log IC50 (pIC50) was 7.30. Turning to `CN1CCN(c2ccc3cc(S(=O)(=O)N[C@H]4CC[C@H](C(=O)N[C@H](c5ccccc5)C(C)(C)O)CC4)ccc3n2)CC1` [Example 258, (1r,4R)-N-((R)-2-hydroxy-2-methyl-1-phenylpropyl)-4-(2-(4-methylpiperazin-1-yl)quinoline-6-sulfonamido)cyclohexanecarboxamide], the negative-log IC50 (pIC50) is 7.10.

`CN1CCN(c2ccc3cc(S(=O)(=O)NC4CCC(C(=O)N5CCNCC5c5ccccc5)CC4)ccc3n2)CC1` (stereo not shown) [Example 259, 2-(4-methylpiperazin-1-yl)-N-((1r,4r)-4-(2-phenylpiperazine-1-carbonyl)cyclohexyl)quinoline-6-sulfonamide]: the negative logarithm of the IC50 (pIC50) was 6.35.

For `CC(C)[C@H]1COCCN1C(=O)[C@H]1CC[C@H](NS(=O)(=O)c2ccc3nc(N4CCN(C)CC4)ccc3c2)CC1` [Example 260, N-((1S,4r)-4-((S)-3-isopropylmorpholine-4-carbonyl)cyclohexyl)-2-(4-methylpiperazin-1-yl)quinoline-6-sulfonamide], the pIC50 was 5.53. For the compound `Cc1cc(-c2ccc3cc(S(=O)(=O)N[C@H]4CC[C@H](C(=O)N5CCOC[C@@H]5C(C)C)CC4)ccc3n2)cc(C)n1` [Example 261, 2-(2,6-dimethylpyridin-4-yl)-N-((1S,4r)-4-((S)-3-isopropylmorpholine-4-carbonyl)cyclohexyl)quinoline-6-sulfonamide], the negative logarithm of the IC50 (pIC50) is 6.34. As to `C[C@@H](NC(=O)C12CC3CC(C1)C(NS(=O)(=O)c1cnc4c(c1)NCCN4)C(C3)C2)c1ccc(F)cc1` (stereo partly drawn) [Example 262, 4-(1,2,3,4-Tetrahydro-pyrido[2,3-b]pyrazine-7-sulfonylamino)-adamantane-1-carboxylic acid [(R)-1-(4-fluoro-phenyl)-ethyl]-amide], the negative-log IC50 (pIC50) is 7.70. The result for `CC(C)(C)OC(=O)N1CCN(C(=O)[C@H]2CC[C@H](NS(=O)(=O)c3ccc4c(c3)oc3ccccc34)CC2)[C@@H](c2ccccc2)C1` [Example 263, (S)-tert-butyl 4-((1r,4S)-4-(dibenzo[b,d]furan-3-sulfonamido)cyclohexanecarbonyl)-3-phenylpiperazine-1-carboxylate] reads 7.52; that for `O=C([C@H]1CC[C@H](NS(=O)(=O)c2ccc3c(c2)oc2ccccc23)CC1)N1CCNC[C@@H]1c1ccccc1` [Example 264, N-((1S,4r)-4-((S)-2-phenylpiperazine-1-carbonyl)cyclohexyl)dibenzo[b,d]furan-3-sulfonamide], 7.70; that for `COC(=O)C12CC3CC(C1)C(NS(=O)(=O)c1ccc4oc5ccccc5c4c1)C(C3)C2` (stereo not shown) [Example 265, 4-(Dibenzofuran-2-sulfonylamino)-adamantane-1-carboxylic acid methyl ester], 6.16. For the compound `CCOc1ccc2cc(S(=O)(=O)N[C@H]3CC[C@H](C(=O)N[C@H](COC(=O)[C@@H](N)C(C)C)c4ccccc4)CC3)ccc2n1` [Example 266, (S)-((S)-2-((1r,4S)-4-(2-ethoxyquinoline-6-sulfonamido)cyclohexanecarboxamido)-2-phenylethyl) 2-amino-3-methylbutanoate], the pIC50 was 6.85.

For `COC(=O)[C@H]1CC[C@H](CNS(=O)(=O)c2ccc3oc4ccccc4c3c2)CC1` [Example 267, (1r,4r)-methyl 4-((dibenzo[b,d]furan-2-sulfonamido)methyl)cyclohexanecarboxylate], the negative logarithm of the IC50 (pIC50) was below 4.46. In the case of `CCOc1ccc2cc(S(=O)(=O)N[C@H]3CC[C@H](C(=O)N[C@H](COP(=O)(OC(C)(C)C)OC(C)(C)C)c4ccccc4)CC3)ccc2n1` [Example 268, di-tert-butyl (S)-2-((1r,4S)-4-(2-ethoxyquinoline-6-sulfonamido)cyclohexanecarboxamido)-2-phenylethyl phosphate], the negative logarithm of the IC50 (pIC50) is 6.36.

For `CCOc1ccc2cc(S(=O)(=O)N[C@H]3CC[C@H](C(=O)N[C@H](COP(=O)(O)O)c4ccccc4)CC3)ccc2n1` [Example 269, (S)-2-((1r,4S)-4-(2-ethoxyquinoline-6-sulfonamido)cyclohexanecarboxamido)-2-phenylethyl dihydrogen phosphate], the pIC50 was 4.60. Turning to `C[C@@H](NC(=O)C12CCC(NS(=O)(=O)c3cnc4c(c3)NCCN4)(CC1)CC2)c1ccc(F)cc1` [Example 270, (R)-N-(1-(4-fluorophenyl)ethyl)-4-(1,2,3,4-tetrahydropyrido[3,2-b]pyrazine-7-sulfonamido)bicyclo[2.2.2]octane-1-carboxamide], the pIC50 was 6.78. Regarding `CCOc1ccc2cc(S(=O)(=O)NC3CCC(C(=O)NC(c4ccccc4)C(C)OC(=O)C(N)C(C)C)CC3)ccc2n1` [Example 271, (S)-((1S,2S)-1-((1r,4S)-1-((1r,4S)-4-(2-ethoxyquinoline-6-sulfonamido)cyclohexanecarboxamido)-1-phenylpropan-2-yl) 2-amino-3-methylbutanoate], the pIC50 was 6.71. In the case of `CCOc1ccc2cc(S(=O)(=O)N[C@H]3CC[C@H](C(=O)N[C@H](COC(=O)[C@@H](N)Cc4ccccc4)c4ccccc4)CC3)ccc2n1` [Example 273, (S)-((S)-2-((1r,4S)-4-(2-ethoxyquinoline-6-sulfonamido)cyclohexanecarboxamido)-2-phenylethyl) 2-amino-3-phenylpropanoate], the negative logarithm of the IC50 (pIC50) is 7.41. For `O=C(N[C@@H](c1ccccc1)C(F)(F)F)[C@H]1CC[C@H](NS(=O)(=O)c2ccc3[nH]c(-c4ccccc4)nc3c2)CC1` [Example 274, (1r,4S)-4-(2-phenyl-1H-benzo[d]imidazole-5-sulfonamido)-N-((S)-2,2,2-trifluoro-1-phenylethyl)cyclohexanecarboxamide] the value was 5.40. As to `COC(=O)c1ccc(-c2nc3cc(S(=O)(=O)N[C@H]4CC[C@H](C(=O)N[C@H](C)c5ccccc5)CC4)ccc3[nH]2)cc1` [Example 275, methyl 4-(5-(N-((1R,4r)-4-((R)-1-phenylethylcarbamoyl)cyclohexyl)sulfamoyl)-1H-benzo[d]imidazol-2-yl)benzoate], the negative logarithm of the IC50 (pIC50) is 7.74. On to `C[C@@H](NC(=O)[C@H]1CC[C@H](NS(=O)(=O)c2ccc3[nH]c(-c4ccc(F)cc4)nc3c2)CC1)c1ccccc1` [Example 276, (1r,4R)-4-(2-(4-fluorophenyl)-1H-benzo[d]imidazole-5-sulfonamido)-N-((R)-1-phenylethyl)cyclohexanecarboxamide], for which the pIC50 is above 8.00.

For `C[C@@H](NC(=O)[C@H]1CC[C@H](NS(=O)(=O)c2ccc3[nH]c(C4CC4)nc3c2)CC1)c1ccccc1` [Example 277, (1r,4R)-4-(2-cyclopropyl-1H-benzo[d]imidazole-5-sulfonamido)-N-((R)-1-phenylethyl)cyclohexanecarboxamide], the pIC50 is 7.10. For `C[C@@H](NC(=O)[C@H]1CC[C@H](NS(=O)(=O)c2ccc3[nH]c(-c4ccc(C(=O)O)cc4)nc3c2)CC1)c1ccccc1` [Example 278, 4-(5-(N-((1R,4r)-4-((R)-1-phenylethylcarbamoyl)cyclohexyl)sulfamoyl)-1H-benzo[d]imidazol-2-yl)benzoic acid], the pIC50 was 7.18.
